Like-named read-outs stand apart in the source and are kept apart here.
Assays:
Format in all cases: cell-based, human
[1] = system: breast cancer cell line MDA-MB-231; assay: MTT cytotoxicity assay, MDA-MB-231; settings: MDA-MB-231 cells, 8000 cells/well, 24 h incubation with compound, absorbance 490 nm, read-out: IC50 (μmol/L) MDA-MB-231
Excerpt: (§1) A small library derived from 6a–b, 9 and 10a–c was obtained by hydrolysis of the macrocycles and condensation with amines. The anti-tumor activities for lung cancer cell line A549, breast cancer cell line MDA-MB-231 and hepatocarcinoma cell line Hep G2 of all these new compounds were screened in vitro by an MTT assay. Most of the compounds show some inhibitory activities against A549, MDA-MB-231 and Hep G2. […] In the future, further structure–activity relationship studies will be performed to determine how the substituents affected the anti-tumor activity and to design the best chemical structure in the future.
(§2) The human lung cancer cell line A549, breast cancer cell line MDA-MB-231 and hepatocarcinoma cell line Hep G2 were cultured in Dulbecco’s modified Eagle’s medium (DMEM) supplemented with antibiotics (penicillin 50 U/mL; streptomycin 50 µg/mL) and 10% FCS. The incubation was at 37 °C in a humidified atmosphere of 5% CO2 in air before experiments. Cells were first seeded at a density of 8000 cells/well in a 96-well plate for 48 hours. Solutions containing respective concentrations of compounds were added into wells and incubation continued for another 24 hours. After that, the MTT (3-(4,5-dimethylthiazol-2-yl)-2,5-diphenyltetrazolium bromide) dye stock solution (10 μL, 5 mg/mL) was added to each well. After 4 h, the supernatant was removed and DMSO (100 μL) was added to solubilize the MTT. The absorbance was measured at a wave length of 490 nm (A490nm) on an ELISA microplate reader. Results were expressed as IC50 values.

[2] = system: lung cancer cell line A549; assay: MTT cytotoxicity assay, A549; settings: A549 cells, 8000 cells/well, 24 h incubation with compound, absorbance 490 nm, read-out: IC50 (μmol/L) A549
Excerpt: as §1, §2

[3] = system: hepatocarcinoma cell line Hep G2; assay: MTT cytotoxicity assay, Hep G2; settings: 8000 cells/well, 24 h incubation with compound, absorbance 490 nm, read-out: IC50 (μmol/L) Hep G2
Excerpt: as §1, §2

[4] = Homo sapiens, HepG2, Hep G2 cells

SMILES | IC50 [1] [µmol/L] | IC50 [2] [µmol/L] | IC50 ([3]; Hep G2 cells) [µmol/L] | IC50 ([1]; Homo sapiens) [µmol/L] | IC50 ([2]; Homo sapiens) [µmol/L] | IC50 [3, 4] [µmol/L]
N.N.[Cl][Pt][Cl] [Cisplatin, reference compound] | 19.7 | 15.4 | 17.4 |  |  | 
O=C(O)[C@@H]1C[C@@H]2CN1C(=O)c1cccc(c1)OCCn1cc(nn1)CO2 [Compound 22, (11R,13S)-15-Oxo-2,10-dioxa-5,6,7,14-tetraaza-tetracyclo[14.3.1.1^5,8.1^11,14]docosane-6,8(21),1(20),16,18-pentaene-13-carboxylic acid] | 45.1 | 32.2 | 44.2 |  |  | 
NC(=O)[C@@H]1C[C@@H]2CN1C(=O)c1cccc(c1)OCCn1cc(nn1)CO2 [Compound 23, (11R,13S)-15-Oxo-2,10-dioxa-5,6,7,14-tetraaza-tetracyclo[14.3.1.1^5,8.1^11,14]docosane-6,8(21),1(20),16,18-pentaene-13-carboxamide] | 29.9 | 26.8 | 37.3 |  |  | 
O=C(Nc1ccccc1)[C@@H]1C[C@@H]2CN1C(=O)c1cccc(c1)OCCn1cc(nn1)CO2 [Compound 24, (11R,13S)-15-Oxo-N-phenyl-2,10-dioxa-5,6,7,14-tetraaza-tetracyclo[14.3.1.1^5,8.1^11,14]docosane-6,8(21),1(20),16,18-pentaene-13-carboxamide] | 35.6 | 45.7 | 46.3 |  |  | 
CC(C)CNC(=O)[C@@H]1C[C@@H]2CN1C(=O)c1cccc(c1)OCCn1cc(nn1)CO2 [Compound 25, (11R,13S)-15-Oxo-N-isobutyl-2,10-dioxa-5,6,7,14-tetraaza-tetracyclo[14.3.1.1^5,8.1^11,14]docosane-6,8(21),1(20),16,18-pentaene-13-carboxamide] | 42.5 | 37.7 | 48.3 |  |  | 
O=C(O)[C@@H]1C[C@@H]2CN1C(=O)c1cccc(c1)OCCn1nncc1CO2 [Compound 26, (12R,14S)-16-Oxo-2,11-dioxa-5,6,7,15-tetraaza-tetracyclo[15.3.1.1^12,15.0^5,9]docosane-6,8,1(21),17,19-pentaene-14-carboxylic acid] |  |  |  | 34.3 | 37.1 | 44.9
NC(=O)[C@@H]1C[C@@H]2CN1C(=O)c1cccc(c1)OCCn1nncc1CO2 [Compound 27, (12R,14S)-16-Oxo-2,11-dioxa-5,6,7,15-tetraaza-tetracyclo[15.3.1.1^12,15.0^5,9]docosane-6,8,1(21),17,19-pentaene-14-carboxamide] |  |  |  | 28 | 41.3 | 34.7
O=C(Nc1ccccc1)[C@@H]1C[C@@H]2CN1C(=O)c1cccc(c1)OCCn1nncc1CO2 [Compound 28, (12R,14S)-16-Oxo-N-phenyl-2,11-dioxa-5,6,7,15-tetraaza-tetracyclo[15.3.1.1^12,15.0^5,9]docosane-6,8,1(21),17,19-pentaene-14-carboxamide] |  |  |  | 43.7 | 46.3 | 36.3
CC(C)CNC(=O)[C@@H]1C[C@@H]2CN1C(=O)c1cccc(c1)OCCn1nncc1CO2 [Compound 29, (12R,14S)-16-Oxo-N-isobutyl-2,11-dioxa-5,6,7,15-tetraaza-tetracyclo[15.3.1.1^12,15.0^5,9]docosane-6,8,1(21),17,19-pentaene-14-carboxamide] |  |  |  | 43.2 | 32.2 | 37.3
O=C(O)[C@@H]1C[C@@H]2CN1C(=O)c1cccc(c1)OC/C=C\CO2 [Compound 30, (4Z,8R,10S)-12-Oxo-2,7-dioxa-11-aza-tricyclo[11.3.1.1^8,11]octadecane-4,1(17),13,15-tetraene-10-carboxylic acid] |  |  |  | 10.3 | 11.2 | 23.2
NC(=O)[C@@H]1C[C@@H]2CN1C(=O)c1cccc(c1)OC/C=C\CO2 [Compound 31, (4Z,8R,10S)-12-Oxo-2,7-dioxa-11-aza-tricyclo[11.3.1.1^8,11]octadecane-4,1(17),13,15-tetraene-10-carboxamide] |  |  |  | 12.3 | 5.21 | 31.9

— publication PMC6274554, “Synthetic Strategy and Anti-Tumor Activities of Macrocyclic Scaffolds Based on 4-Hydroxyproline” (Molecules, 2016)
